Laboratory results: article PMC4503722, “Novel Phenotypic Outcomes Identified for a Public Collection of Approved Drugs from a Publicly Accessible Panel of Assays” (PLoS ONE, 2015)
pEC50, pIC50: −log10 of the molar value. Like-named read-outs stand apart in the source and are kept apart here.

Key:
Assay in all cases: cells
DLD-1 = type: cell-based
[1] = tested on: nuclear β-catenin in C2C12 cells; type: cell-based
HT-29 = type: cell-based
INS-1E cells = type: cell-based, rat
[2] = tested on: endothelial tube formation in co-cultures of ECFCs and ADSCs treated with VEGF; type: cell-based, human
HCT116 = type: cell-based
HeLa cells = type: cell-based; conditions: read-out: CellCycle G2/M
NCI-H716 cells = type: cell-based, Human
Colo320 = type: cell-based
[3] = tested on: HCT116 cells treated with a GSK3β inhibitor; type: cell-based
SNU-C1 = type: cell-based
SW480 = type: cell-based
RKO = type: cell-based
[4] = Homo sapiens, DLD-1, read-out: Basal_Viability ATP DLD-1
[5] = Homo sapiens, HT-29, read-out: Basal_Viability ATP HT-29
[6] = Homo sapiens, read-out: Anti-Angiogenesis
[7] = Homo sapiens, HCT-116, read-out: Basal_Viability ATP HCT116
[8] = Homo sapiens, COLO 320, read-out: Basal_Viability ATP Colo 320
[9] = Homo sapiens, HCT-116, read-out: GSK3b inh pretreated_Viability ATP HCT116
[10] = Homo sapiens, SNU-C1, read-out: Basal_Viability ATP SNU-C1
[11] = Homo sapiens, SW480, read-out: Basal_Viability ATP SW480
[12] = Homo sapiens, RKO, read-out: Basal_Viability ATP RKO
[13] = Homo sapiens, DLD-1, basal, DLD-1, read-out: Basal_Viability ATP DLD-1
[14] = Mus musculus, C2C12, S2 Table, module primary assay, 20 / 20.1 codes per legend, read-out: Wnt Pathway
[15] = Homo sapiens, basal, HT-29, read-out: Basal_Viability ATP HT-29
[16] = Rattus norvegicus, INS-1E; read-out: Insulin Secretion
[17] = Homo sapiens; read-out: Anti-Angiogenesis
[18] = Homo sapiens, HCT-116, basal, HCT116, read-out: Basal_Viability ATP HCT116
[19] = Homo sapiens, HeLa, S2 Table, HeLa, 20 = no response at highest concentration
[20] = Homo sapiens, NCI-H716; read-out: GLP 1 Secretion
[21] = Homo sapiens, basal, Colo 320, read-out: Basal_Viability ATP Colo 320
[22] = Homo sapiens, HCT-116, HCT116 pretreated with GSK3b inhibitor, read-out: GSK3b inh pretreated_Viability ATP HCT116
[23] = Homo sapiens, SNU-C1, basal, SNU-C1, read-out: Basal_Viability ATP SNU-C1
[24] = Homo sapiens, SW480, basal, SW480, read-out: Basal_Viability ATP SW480
[25] = Homo sapiens, basal, RKO, read-out: Basal_Viability ATP RKO

Q: What does the source list for `CO[C@@]12[C@H](COC(N)=O)C3=C(C(=O)C(C)=C(N)C3=O)N1C[C@@H]1N[C@@H]12` [Mitomycin]?
A: pIC50 (DLD-1; [4]): 5.25; pEC50 ([1]; Mus musculus, C2C12, read-out: Wnt Pathway): < 5.00; pIC50 (HT-29; [5]): 5.59; pEC50 (INS-1E cells; Rattus norvegicus, INS-1E, read-out: Insulin Secretion): < 5.00; pIC50 [2, 6]: 6.99; pIC50 (HCT116; [7]): 4.87; pEC50 (HeLa cells; Homo sapiens, HeLa): < 5.00; pEC50 (NCI-H716 cells; Homo sapiens, NCI-H716, read-out: GLP 1 Secretion): < 5.00; pIC50 (Colo320; [8]): 4.90; pIC50 [3, 9]: < 4.70; pIC50 (SNU-C1; [10]): 5.09; pIC50 (SW480; [11]): 4.92; pIC50 (RKO; [12]): 6.00

Q: What does the source list for `O=C(NOCC1CC1)c1ccc(F)c(F)c1Nc1ccc(I)cc1Cl` [PD-184352, reference compound]?
A: pIC50 (DLD-1; Homo sapiens, DLD-1, 72 h, read-out: DLD-1 viab. IC50): 5.66; pIC50 (DLD-1; [4]): 5.67; pEC50 ([1]; Mus musculus, C2C12, read-out: Wnt pot. EC50): < 5.00; pIC50 (HT-29; Homo sapiens, HT-29, 72 h, read-out: HT-29 viab. IC50): 7.59; pIC50 (HT-29; [5]): 7.58; pEC50 (INS-1E cells; Rattus norvegicus, INS-1E, read-out: Ins. sec. EC50): < 5.00; pIC50 ([2]; Homo sapiens, read-out: Anti-Angio IC50): 6.43; pIC50 [2, 6]: 6.43; pIC50 (HCT116; Homo sapiens, HCT-116, 72 h, read-out: HCT-116 viab. IC50): 8.70; pIC50 (HCT116; [7]): 8.75; pEC50 (HeLa cells; Homo sapiens, HeLa): < 5.00; pEC50 (NCI-H716 cells; Homo sapiens, NCI-H716, read-out: GLP1 sec. EC50): < 5.00; pIC50 (Colo320; Homo sapiens, COLO 320, 72 h, read-out: Colo320 viab. IC50): 6.07; pIC50 (Colo320; [8]): 6.07; pIC50 ([3]; Homo sapiens, HCT-116, 72 h, read-out: HCT-116 (GSK3β) viab. IC50): 6.01; pIC50 [3, 9]: 6.01; pIC50 (SNU-C1; Homo sapiens, SNU-C1, 72 h, read-out: SNU-C1 viab. IC50): 7.77; pIC50 (SNU-C1; [10]): 7.77; pIC50 (SW480; Homo sapiens, SW480, 72 h, read-out: SW480 viab. IC50): 8.30; pIC50 (SW480; [11]): 8.31; pIC50 (RKO; Homo sapiens, RKO, 72 h, read-out: RKO viab. IC50): 8.52; pIC50 (RKO; [12]): 8.50

Q: How did the pIC50 (DLD-1; [13]) turn out when `OC[C@H]1O[C@@H](n2cnc3c(S)ncnc32)[C@H](O)[C@@H]1O` [Thioinosine] was run?
A: 7.20

Q: And the pEC50 [1, 14]?
A: < 5.00

Q: And the pIC50 (HT-29; [15])?
A: 6.93

Q: What about the pEC50 (INS-1E cells; [16]) of the same compound?
A: < 5.00

Q: And the pIC50 [2, 17]?
A: 5.85

Q: What about the pIC50 (HCT116; [18]) of the same compound?
A: 7.54

Q: And the pEC50 (HeLa cells; [19])?
A: < 5.00

Q: And the pEC50 (NCI-H716 cells; [20])?
A: < 5.00

Q: And the pIC50 (Colo320; [21])?
A: 5.97

Q: What about the pIC50 [3, 22] of the same compound?
A: 6.30

Q: And the pIC50 (SNU-C1; [23])?
A: 5.66

Q: And the pIC50 (SW480; [24])?
A: 7.54

Q: What about the pIC50 (RKO; [25]) of the same compound?
A: 7.84

Q: Which results are given for `O=C(Nc1ccc(Br)cc1)c1cc(Br)cc(Br)c1O` [Tribromsalan]?
A: pIC50 (DLD-1; [13]): 9.00; pEC50 [1, 14]: < 5.00; pIC50 (HT-29; [15]): 9.00; pEC50 (INS-1E cells; [16]): < 5.00; pIC50 [2, 17]: 5.74; pIC50 (HCT116; [18]): 8.52; pEC50 (HeLa cells; [19]): < 5.00; pEC50 (NCI-H716 cells; [20]): < 5.00; pIC50 (Colo320; [21]): 8.52; pIC50 [3, 22]: 9.00; pIC50 (SNU-C1; [23]): 9.00; pIC50 (SW480; [24]): 9.00; pIC50 (RKO; [25]): 8.52

Q: How did the pIC50 (DLD-1; read-out: Basal_Viability ATP DLD-1) turn out when `Oc1ccc([C@@H]2CNCc3c2ccc(O)c3O)cc1O` [Zelandopam] was run?
A: < 4.70

Q: What about the pEC50 ([1]; read-out: Wnt Pathway) of the same compound?
A: < 5.00

Q: And the pIC50 (HT-29; read-out: Basal_Viability ATP HT-29)?
A: < 4.70

Q: What about the pEC50 (INS-1E cells; read-out: Insulin Secretion) of the same compound?
A: < 5.00

Q: And the pIC50 ([2]; read-out: Anti-Angiogenesis)?
A: < 5.00

Q: And the pIC50 (HCT116; read-out: Basal_Viability ATP HCT116)?
A: < 4.70

Q: What about the pEC50 (HeLa cells) of the same compound?
A: < 5.00

Q: What about the pEC50 (NCI-H716 cells; read-out: GLP 1 Secretion) of the same compound?
A: 5.23

Q: What about the pIC50 (Colo320; read-out: Basal_Viability ATP Colo 320) of the same compound?
A: 6.33

Q: And the pIC50 ([3]; read-out: GSK3b inh pretreated_Viability ATP HCT116)?
A: 6.73

Q: What about the pIC50 (SNU-C1; read-out: Basal_Viability ATP SNU-C1) of the same compound?
A: < 4.70

Q: What about the pIC50 (SW480; read-out: Basal_Viability ATP SW480) of the same compound?
A: < 4.70

Q: And the pIC50 (RKO; read-out: Basal_Viability ATP RKO)?
A: 7.48
